# ChEMBL document CHEMBL1201862, “PubChem BioAssay data set” (2004)
# pIC50: −log10 of the molar value. Calls of active or inactive are those of the source.
# Legend:
# T-cell = test: inhibitors of CD8+ T cell–vesicle binding, dose response, mouse 2C CD8+ T cells, flow cytometry (AID 485284); format: functional
# Vero [1] = test: cytotoxicity of synthesized analogs in Vero cells, SAR follow-up, cytotoxicity control for West Nile virus antiviral project, cell-based, set II (AID 2402); format: functional; conditions: Chlorocebus sabaeus
# Vero [2] = test: Vero E6 cell cytotoxicity, SAR follow-up, cytotoxicity control for West Nile virus antiviral project, synthesized analogs (AID 2244); format: functional; conditions: Chlorocebus sabaeus
# Vero [3] = test: West Nile virus CPE inhibition, SAR follow-up, cell-based, synthesized analogs (AID 2238); format: functional; conditions: Chlorocebus sabaeus
# Vero [4] = test: cytotoxicity of synthesized analogs in Vero 76, SAR follow-up, cytotoxicity control for West Nile virus antiviral project, Vero 76 cells (AID 2414); format: functional; conditions: Chlorocebus sabaeus
# [5] = target: T1, Ubiquitin-conjugating enzyme E2 N (Homo sapiens, UniProt P61088); format: functional;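 further: Dose-response confirmation in a TR-FRET assay detecting UBC13-driven polyubiquitin chain formation, inhibition measured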
# T1 sequence (P61088 whole entry): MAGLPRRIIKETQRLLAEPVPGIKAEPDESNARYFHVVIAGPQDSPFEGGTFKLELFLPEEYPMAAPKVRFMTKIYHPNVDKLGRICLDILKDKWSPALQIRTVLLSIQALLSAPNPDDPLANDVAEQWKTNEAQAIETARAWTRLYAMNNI
# [6] = A Cell Based Assay for the Identification of Probe candidate Compounds with Anti- Venezuelan Equine Encephalitis virus. [Related pubchem assays: 2409, 2419, 1621, 2238, 2405, 2024, 2065, 2402, 2414, 1635, 1650, 2244 ]; format: functional
# Hexokinase = Hexokinase (Trypanosoma brucei, UniProt Q38C41); test: Confirmation assay for inhibitors of Trypanosoma brucei hexokinase 1-Analogue-first series. [Related pubchem assays (depositor defined):AID1430, AID1632, AID2516, AID2560, AID2579, AID2600, AID449725, AID492951]; format: functional
# Sequence of Hexokinase (Q38C41 whole entry): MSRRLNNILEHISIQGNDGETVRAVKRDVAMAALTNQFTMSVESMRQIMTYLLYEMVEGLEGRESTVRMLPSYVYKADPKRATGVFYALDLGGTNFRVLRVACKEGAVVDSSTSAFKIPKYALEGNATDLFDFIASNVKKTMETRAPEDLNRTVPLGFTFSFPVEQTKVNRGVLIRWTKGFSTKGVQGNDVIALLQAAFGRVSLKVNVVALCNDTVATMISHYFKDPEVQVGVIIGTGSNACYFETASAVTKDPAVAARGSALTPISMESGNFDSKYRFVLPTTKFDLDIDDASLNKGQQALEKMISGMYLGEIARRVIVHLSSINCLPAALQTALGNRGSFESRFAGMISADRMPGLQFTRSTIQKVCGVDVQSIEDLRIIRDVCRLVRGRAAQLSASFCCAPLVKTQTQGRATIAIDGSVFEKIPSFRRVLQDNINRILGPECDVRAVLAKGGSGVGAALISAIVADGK
# Prothrombin = Prothrombin (Bos taurus, UniProt P00735); test: thrombin inhibition, dose response, biochemical, fluorescence polarization, uHTS hits (AID 602369); format: functional
# [7] = target: T2, Kappa-type opioid receptor (Homo sapiens, UniProt P41145); format: functional
# T2 sequence (P41145 whole entry): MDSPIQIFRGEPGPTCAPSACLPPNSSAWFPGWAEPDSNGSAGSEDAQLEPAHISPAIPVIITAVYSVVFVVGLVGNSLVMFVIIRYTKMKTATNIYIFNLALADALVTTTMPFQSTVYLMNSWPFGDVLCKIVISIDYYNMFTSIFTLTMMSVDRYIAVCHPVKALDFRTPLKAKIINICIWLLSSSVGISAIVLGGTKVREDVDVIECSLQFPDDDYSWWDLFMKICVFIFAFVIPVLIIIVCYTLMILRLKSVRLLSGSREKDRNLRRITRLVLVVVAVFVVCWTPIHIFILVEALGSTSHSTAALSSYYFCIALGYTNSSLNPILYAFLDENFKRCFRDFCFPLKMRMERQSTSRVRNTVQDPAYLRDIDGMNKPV
# Insulin-degrading enzyme = target: T3, Insulin-degrading enzyme (Homo sapiens, UniProt P14735); test: Dose Response: Fluorescence polarization-based cell-based high throughput dose response assay for inhibitors of insulin-degrading enzyme (IDE). [Related pubchem assays: 434962 (Primary screen (IDE inhibitors in singlicate)), 449730 (Counterscreen (Cytotoxicity in triplicate)), 435028 (Confirmation (IDE inhibitors in triplicate)), 434984 (Summary …; format: functional
# T3 sequence (P14735 whole entry): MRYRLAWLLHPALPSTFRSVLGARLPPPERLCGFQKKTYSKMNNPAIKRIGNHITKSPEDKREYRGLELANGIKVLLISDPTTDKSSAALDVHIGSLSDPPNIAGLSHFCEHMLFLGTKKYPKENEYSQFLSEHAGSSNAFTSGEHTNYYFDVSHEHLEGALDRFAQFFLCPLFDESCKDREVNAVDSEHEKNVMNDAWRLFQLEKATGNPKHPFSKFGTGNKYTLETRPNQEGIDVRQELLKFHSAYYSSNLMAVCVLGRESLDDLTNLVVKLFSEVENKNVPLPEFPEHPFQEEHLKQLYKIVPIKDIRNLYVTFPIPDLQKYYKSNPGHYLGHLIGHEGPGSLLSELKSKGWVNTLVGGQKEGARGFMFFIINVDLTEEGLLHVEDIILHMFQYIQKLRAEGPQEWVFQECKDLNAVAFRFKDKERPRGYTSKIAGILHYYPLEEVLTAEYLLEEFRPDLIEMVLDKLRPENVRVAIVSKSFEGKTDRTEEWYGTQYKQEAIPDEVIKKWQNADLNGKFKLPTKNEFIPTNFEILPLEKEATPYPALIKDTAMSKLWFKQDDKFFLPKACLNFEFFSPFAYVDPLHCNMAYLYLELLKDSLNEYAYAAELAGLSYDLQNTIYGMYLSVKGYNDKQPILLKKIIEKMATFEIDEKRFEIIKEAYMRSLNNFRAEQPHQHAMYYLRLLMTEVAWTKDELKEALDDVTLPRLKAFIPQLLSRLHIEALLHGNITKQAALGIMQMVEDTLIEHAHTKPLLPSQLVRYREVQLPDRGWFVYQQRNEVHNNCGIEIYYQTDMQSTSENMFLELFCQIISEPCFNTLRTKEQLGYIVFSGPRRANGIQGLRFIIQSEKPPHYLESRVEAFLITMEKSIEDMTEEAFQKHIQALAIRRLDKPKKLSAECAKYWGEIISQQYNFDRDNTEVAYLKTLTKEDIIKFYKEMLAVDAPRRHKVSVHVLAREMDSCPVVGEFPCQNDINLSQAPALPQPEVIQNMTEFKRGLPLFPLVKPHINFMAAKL
# [8] = Counterscreen for IDE inhibitors: Luminescence-based cell-based high throughput dose response assay to identify compounds that are cytotoxic to HEK cells. [Related pubchem assays: 434962 (Primary screen (IDE inhibitors in singlicate)), 449730 (Counterscreen (Cytotoxicity in triplicate)), 435028 (Confirmation (IDE inhibitors in triplicate)) …; format: functional; conditions: HEK293
# [9] = target: T4, Rac GTPase-activating protein 1 (Homo sapiens, UniProt Q9H0H5); test: MgcRacGAP GTPase-activating activity inhibitors, confirmation, biochemical, ADP Hunter fluorescence, primary and confirmatory (AID 624330); format: functional
# T4 sequence (Q9H0H5 whole entry): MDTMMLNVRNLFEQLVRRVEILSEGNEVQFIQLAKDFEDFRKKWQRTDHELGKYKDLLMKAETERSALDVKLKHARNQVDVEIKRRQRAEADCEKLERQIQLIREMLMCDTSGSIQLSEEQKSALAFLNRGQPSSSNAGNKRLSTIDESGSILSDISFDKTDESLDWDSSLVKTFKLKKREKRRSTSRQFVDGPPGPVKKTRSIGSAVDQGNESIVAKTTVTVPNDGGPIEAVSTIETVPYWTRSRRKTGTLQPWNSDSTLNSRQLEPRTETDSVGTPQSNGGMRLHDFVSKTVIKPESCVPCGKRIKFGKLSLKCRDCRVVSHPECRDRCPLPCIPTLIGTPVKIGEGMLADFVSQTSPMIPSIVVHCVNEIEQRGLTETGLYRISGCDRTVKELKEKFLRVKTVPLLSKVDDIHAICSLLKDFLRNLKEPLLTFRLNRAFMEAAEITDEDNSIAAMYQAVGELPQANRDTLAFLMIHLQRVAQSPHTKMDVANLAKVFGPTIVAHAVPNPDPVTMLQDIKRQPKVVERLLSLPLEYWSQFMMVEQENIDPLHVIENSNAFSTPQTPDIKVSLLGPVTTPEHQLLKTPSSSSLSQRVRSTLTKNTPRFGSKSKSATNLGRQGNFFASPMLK
# Beta-galactosidase = Beta-galactosidase (Escherichia coli, UniProt Q8VNN2); format: functional
# Sequence of Beta-galactosidase (Q8VNN2 whole entry): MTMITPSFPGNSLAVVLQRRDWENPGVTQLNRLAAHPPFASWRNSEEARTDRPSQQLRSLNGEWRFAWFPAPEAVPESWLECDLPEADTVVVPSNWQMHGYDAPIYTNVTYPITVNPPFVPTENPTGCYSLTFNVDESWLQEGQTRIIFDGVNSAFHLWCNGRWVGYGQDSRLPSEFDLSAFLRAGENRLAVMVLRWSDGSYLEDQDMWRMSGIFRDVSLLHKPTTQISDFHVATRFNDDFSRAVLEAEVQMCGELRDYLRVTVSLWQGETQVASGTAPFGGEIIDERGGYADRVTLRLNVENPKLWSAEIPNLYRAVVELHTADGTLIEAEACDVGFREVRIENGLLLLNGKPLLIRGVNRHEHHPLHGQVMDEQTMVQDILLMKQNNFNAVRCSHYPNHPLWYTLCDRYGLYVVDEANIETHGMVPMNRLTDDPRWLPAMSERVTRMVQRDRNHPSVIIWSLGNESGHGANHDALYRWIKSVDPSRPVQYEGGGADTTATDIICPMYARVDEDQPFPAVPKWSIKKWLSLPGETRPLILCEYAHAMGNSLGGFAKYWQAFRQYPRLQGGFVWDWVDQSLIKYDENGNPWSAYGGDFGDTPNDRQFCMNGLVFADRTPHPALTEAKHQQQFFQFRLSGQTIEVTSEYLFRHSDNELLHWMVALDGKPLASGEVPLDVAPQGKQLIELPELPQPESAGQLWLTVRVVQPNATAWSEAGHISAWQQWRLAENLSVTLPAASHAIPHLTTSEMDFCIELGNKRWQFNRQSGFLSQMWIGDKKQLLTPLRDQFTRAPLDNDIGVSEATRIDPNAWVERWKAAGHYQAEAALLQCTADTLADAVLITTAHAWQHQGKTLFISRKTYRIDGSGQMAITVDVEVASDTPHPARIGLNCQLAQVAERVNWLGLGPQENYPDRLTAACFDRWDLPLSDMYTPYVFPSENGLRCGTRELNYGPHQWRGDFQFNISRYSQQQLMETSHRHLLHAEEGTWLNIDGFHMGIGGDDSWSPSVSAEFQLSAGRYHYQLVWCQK
# [10] = target: 26S proteasome non-ATPase regulatory subunit 14 (Homo sapiens, UniProt O00487); test: inhibition of proteasome subunit RPN11 – biochemical, fluorescence polarization, uHTS hits, confirmation (AID 602368); format: functional
# Sequence of 26S proteasome non-ATPase regulatory subunit 14 (O00487 whole entry): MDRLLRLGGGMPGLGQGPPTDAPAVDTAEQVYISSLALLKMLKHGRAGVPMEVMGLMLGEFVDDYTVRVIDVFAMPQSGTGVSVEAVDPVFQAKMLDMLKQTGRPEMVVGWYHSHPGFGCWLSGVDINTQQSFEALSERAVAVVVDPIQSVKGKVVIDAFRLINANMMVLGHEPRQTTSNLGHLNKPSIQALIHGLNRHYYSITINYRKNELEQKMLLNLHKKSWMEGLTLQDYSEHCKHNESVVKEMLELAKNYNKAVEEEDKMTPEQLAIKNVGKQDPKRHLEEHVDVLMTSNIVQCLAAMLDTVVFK
# [11] = target: T2, Kappa-type opioid receptor; format: functional; remark: listed apart in the source
# [12] = target: 72 kDa type IV collagenase (Homo sapiens, UniProt P08253); test: Dose Response validation of uHTS RPN11 inhibitor hits using a MMP-2 Fluorescence assay.; format: functional
# Sequence of 72 kDa type IV collagenase (P08253 whole entry): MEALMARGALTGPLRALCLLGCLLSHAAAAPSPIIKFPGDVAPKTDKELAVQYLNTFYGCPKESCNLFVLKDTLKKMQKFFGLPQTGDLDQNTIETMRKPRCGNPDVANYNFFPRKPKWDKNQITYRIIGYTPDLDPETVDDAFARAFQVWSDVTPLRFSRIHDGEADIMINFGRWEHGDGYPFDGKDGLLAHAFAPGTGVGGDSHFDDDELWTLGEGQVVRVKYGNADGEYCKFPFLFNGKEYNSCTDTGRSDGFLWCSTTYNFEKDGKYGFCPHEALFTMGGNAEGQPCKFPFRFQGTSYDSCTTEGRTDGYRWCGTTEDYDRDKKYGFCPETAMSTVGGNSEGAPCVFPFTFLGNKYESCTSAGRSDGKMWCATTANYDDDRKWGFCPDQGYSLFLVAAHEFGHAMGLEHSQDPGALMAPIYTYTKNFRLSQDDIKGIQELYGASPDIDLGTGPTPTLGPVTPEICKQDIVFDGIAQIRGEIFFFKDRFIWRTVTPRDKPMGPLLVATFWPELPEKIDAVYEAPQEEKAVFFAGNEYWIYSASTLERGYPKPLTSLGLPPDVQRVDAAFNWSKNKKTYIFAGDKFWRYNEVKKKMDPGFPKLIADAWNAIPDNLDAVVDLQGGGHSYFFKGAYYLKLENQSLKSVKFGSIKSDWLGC
# CAAX prenyl protease 2 = CAAX prenyl protease 2 (Saccharomyces cerevisiae S288c, UniProt Q03530); format: biochemical
# Sequence of CAAX prenyl protease 2 (Q03530 whole entry): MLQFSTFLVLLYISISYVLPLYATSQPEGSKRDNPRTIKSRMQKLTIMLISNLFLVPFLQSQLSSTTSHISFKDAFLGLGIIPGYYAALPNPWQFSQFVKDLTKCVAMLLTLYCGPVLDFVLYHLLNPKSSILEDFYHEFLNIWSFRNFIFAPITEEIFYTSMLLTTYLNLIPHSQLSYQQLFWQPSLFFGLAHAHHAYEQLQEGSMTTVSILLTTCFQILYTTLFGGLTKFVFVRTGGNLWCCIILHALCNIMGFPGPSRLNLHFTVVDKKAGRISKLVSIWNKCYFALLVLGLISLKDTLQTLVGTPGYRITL
# Trypsin = Trypsin (Sus scrofa, UniProt P00761); test: porcine trypsin inhibitors, dose response, selectivity assay for Rce1 protease inhibitor project, biochemical, quenched peptide fluorescence, cherry-pick (AID 488789)
# Sequence of Trypsin (P00761 whole entry): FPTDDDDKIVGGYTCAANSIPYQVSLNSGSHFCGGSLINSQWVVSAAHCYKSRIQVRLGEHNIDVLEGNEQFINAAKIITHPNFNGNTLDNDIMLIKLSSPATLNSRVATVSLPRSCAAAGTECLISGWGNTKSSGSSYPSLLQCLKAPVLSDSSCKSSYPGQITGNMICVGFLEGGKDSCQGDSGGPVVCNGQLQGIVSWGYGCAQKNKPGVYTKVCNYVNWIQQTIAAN
smiles,measurement,setting,value
O=C(CS(=O)(=O)Cc1ccccc1)N1CCc2ccccc21,EC50,T-cell,14.1 µM (active)
CCCN1CCN(CCCNC(=O)c2cc3c(s2)-c2c(C)cccc2OC3)CC1,CC50,Vero [1],12.3 µM (active)
same,CC50,Vero [2],12.4 µM (active)
same,IC50,Vero [3],> 40 µM (active)
same,CC50,Vero [4],28.4 µM (active)
same,IC50,[5],> 20 µM (inactive)
same,IC50,[6],10.4 µM (active)
COc1ccc(C(=O)Nc2cc(OC)ccc2C(=O)O)cc1,IC50,Hexokinase,> 25 µM (inactive)
COc1cc(/C=C2/SC(=S)N(c3c(C)n(C)n(-c4ccccc4)c3=O)C2=O)ccc1O,IC50,Prothrombin,68.1 µM (active)
same,IC50,[7],12.7 µM (active)
same,IC50,Insulin-degrading enzyme,7.99 µM (active)
same,IC50,[8],> 55.7 µM (not active)
same,IC50,[9],43.7 µM (active)
same,EC50,Beta-galactosidase,13 µM (active)
same,IC50,[10],24.4 µM (active)
same,pIC50,[11],< 4.49
same,IC50,[12],62.4 µM (active)
Cc1ccc(C(=O)c2c3ccc(C(F)(F)F)cc3nn2CCC(N)=O)cc1,AC50,CAAX prenyl protease 2,3.73 µM (active)
same,AC50,Trypsin,> 100 µM (inactive)
